Experiments:
[1] = system: patients with MDD; experiment: Phase 2 sub-analysis, MADRS and SDQ composite indexes and single functional items; type: in vivo, human
Description: The present inventors selected items from the MADRS and SDQ scales and created Composite Indexes of cognitive and motivational functions: Cognitive composite index: [MADRS 6 (concentration difficulties), SDQ 16 (wakefulness), SDQ 22 (slowed down feeling, SDQ 35 (ability to focus), SDQ 36 (ability to remember), SDQ 37 (ability to find words), SDQ 38 (sharpness), SDQ 39 (ability to make decisions), SDQ 42 (ability to work)]; Motivation-energy composite index: [MADRS 7 (lassitude), SDQ 7 (motivation), SDQ 20 (energy)]; Mood composite index: [MADRS 1 (reported sadness), SDQ 1, 2, 3 (mood)]; Sleep composite index: [MADRS 4 (reduced sleep), SDQ 13 (ability to fall asleep), SDQ 14 (ability to stay asleep in the middle of the night), SDQ 15 (ability to stay asleep around the time before waking up)]; The present inventors also separately analyzed two additional single functional items part of the SDQ. 1) Social function, single question (SDQ 41, social functioning); 2) sexual function, single question (SDQ 40, sexual functioning).
Analysis of Change from Baseline at different times after the onset of treatment: The likelihood-based method applied is the Mixed-Effect Model Repeated Measures (MMRM) model with fixed-effect terms for treatment, visit (Day 2, Day 4, Day 7, Day 14) and the interaction between treatment and visit. The LS means and the LS means difference (the difference between REL-1017 and Placebo in the LS means) are provided along with the p-value for testing the hypothesis of no difference and the Cohen's effect size (calculated based on the LS mean differences and the pooled standard deviations). The 25 mg and 50 mg dosages are considered separately and combined: 25 mg+50 mg, Combined Treatment Group (CTG).

[2] = target: T1, human NMDA receptor GluN1-GluN2B (Homo sapiens, UniProt Q05586+Q13224); experiment: FLIPR calcium assay, quinolinic acid, gentamicin, dextromethadone (Example 5 Part II), GluN1-GluN2B-CHO; type: cell-based; conditions: 10 μM glycine; for calcium response (mean±SEM): GluN2B, n=42
T1 construct: expressed in transfected cells; host or cells: CHO

[3] = target: T2, human NMDA receptor GluN1-GluN2C (Homo sapiens, UniProt Q05586+Q14957); experiment: FLIPR calcium assay, quinolinic acid, gentamicin, dextromethadone (Example 5 Part II), GluN1-GluN2C-CHO; type: cell-based; conditions: 10 μM glycine; for calcium response (mean±SEM): GluN2C, n=42
T2 construct: expressed in transfected cells; host or cells: CHO

[4] = 25 mg, day not given (first set)
[5] = 50 mg, day not given (first set)
[6] = CTG 25 mg+50 mg, day not given (first set)
[7] = 0.04 μM L-Glu + 1000 μM QA + 10 μM DXT
[8] = 0.2 μM L-Glu + 100 μM QA + 10 μM DXT
[9] = 0.2 μM L-Glu + 1000 μM QA + 10 μM DXT
[10] = 1000 μM QA + 10 μg/ml GENT + 10 μM DXT
[11] = Table 41: 0.04 μM L-Glu + 10 μM DXT
[12] = Table 43: 0.2 μM L-Glu + 10 μM DXT

T1 sequence (Q13224 27-1484, other chains not shown): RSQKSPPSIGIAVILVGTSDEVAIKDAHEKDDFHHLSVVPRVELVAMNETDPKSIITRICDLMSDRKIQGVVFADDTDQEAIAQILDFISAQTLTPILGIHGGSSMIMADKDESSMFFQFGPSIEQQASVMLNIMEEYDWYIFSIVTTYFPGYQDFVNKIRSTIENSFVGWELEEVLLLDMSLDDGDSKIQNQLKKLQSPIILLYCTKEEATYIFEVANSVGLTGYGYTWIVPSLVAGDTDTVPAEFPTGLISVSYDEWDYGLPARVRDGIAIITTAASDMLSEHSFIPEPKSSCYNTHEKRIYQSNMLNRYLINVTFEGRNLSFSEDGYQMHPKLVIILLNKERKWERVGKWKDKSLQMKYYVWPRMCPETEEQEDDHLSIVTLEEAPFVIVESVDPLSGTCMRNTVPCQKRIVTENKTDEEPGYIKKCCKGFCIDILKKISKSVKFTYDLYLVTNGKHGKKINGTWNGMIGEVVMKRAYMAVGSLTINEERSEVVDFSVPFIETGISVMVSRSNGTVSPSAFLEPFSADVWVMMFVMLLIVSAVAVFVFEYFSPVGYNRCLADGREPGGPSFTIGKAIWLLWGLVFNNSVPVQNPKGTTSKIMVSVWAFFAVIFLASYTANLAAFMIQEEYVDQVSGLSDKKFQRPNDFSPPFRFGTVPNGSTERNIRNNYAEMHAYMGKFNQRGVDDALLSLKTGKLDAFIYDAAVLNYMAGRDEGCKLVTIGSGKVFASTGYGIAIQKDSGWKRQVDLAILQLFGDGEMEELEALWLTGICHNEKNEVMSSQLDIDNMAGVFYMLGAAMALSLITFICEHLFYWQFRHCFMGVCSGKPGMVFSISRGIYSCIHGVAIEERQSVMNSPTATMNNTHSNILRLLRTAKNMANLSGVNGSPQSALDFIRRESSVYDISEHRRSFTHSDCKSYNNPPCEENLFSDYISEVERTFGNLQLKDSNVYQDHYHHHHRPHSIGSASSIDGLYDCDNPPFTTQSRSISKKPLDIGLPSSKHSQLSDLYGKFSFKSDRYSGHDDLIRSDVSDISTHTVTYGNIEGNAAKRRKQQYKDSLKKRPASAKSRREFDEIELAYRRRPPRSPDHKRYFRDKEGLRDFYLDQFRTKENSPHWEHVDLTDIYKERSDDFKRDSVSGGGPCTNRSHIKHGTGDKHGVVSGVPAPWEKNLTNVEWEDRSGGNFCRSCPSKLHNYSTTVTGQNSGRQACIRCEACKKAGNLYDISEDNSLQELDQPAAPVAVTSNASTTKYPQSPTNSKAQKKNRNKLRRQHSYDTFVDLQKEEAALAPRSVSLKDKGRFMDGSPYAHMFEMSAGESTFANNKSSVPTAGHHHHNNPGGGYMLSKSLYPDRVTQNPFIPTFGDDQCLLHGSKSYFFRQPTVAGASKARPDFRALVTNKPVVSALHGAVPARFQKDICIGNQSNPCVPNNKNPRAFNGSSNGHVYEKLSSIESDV
T2 sequence (Q14957 20-1233, other chains not shown): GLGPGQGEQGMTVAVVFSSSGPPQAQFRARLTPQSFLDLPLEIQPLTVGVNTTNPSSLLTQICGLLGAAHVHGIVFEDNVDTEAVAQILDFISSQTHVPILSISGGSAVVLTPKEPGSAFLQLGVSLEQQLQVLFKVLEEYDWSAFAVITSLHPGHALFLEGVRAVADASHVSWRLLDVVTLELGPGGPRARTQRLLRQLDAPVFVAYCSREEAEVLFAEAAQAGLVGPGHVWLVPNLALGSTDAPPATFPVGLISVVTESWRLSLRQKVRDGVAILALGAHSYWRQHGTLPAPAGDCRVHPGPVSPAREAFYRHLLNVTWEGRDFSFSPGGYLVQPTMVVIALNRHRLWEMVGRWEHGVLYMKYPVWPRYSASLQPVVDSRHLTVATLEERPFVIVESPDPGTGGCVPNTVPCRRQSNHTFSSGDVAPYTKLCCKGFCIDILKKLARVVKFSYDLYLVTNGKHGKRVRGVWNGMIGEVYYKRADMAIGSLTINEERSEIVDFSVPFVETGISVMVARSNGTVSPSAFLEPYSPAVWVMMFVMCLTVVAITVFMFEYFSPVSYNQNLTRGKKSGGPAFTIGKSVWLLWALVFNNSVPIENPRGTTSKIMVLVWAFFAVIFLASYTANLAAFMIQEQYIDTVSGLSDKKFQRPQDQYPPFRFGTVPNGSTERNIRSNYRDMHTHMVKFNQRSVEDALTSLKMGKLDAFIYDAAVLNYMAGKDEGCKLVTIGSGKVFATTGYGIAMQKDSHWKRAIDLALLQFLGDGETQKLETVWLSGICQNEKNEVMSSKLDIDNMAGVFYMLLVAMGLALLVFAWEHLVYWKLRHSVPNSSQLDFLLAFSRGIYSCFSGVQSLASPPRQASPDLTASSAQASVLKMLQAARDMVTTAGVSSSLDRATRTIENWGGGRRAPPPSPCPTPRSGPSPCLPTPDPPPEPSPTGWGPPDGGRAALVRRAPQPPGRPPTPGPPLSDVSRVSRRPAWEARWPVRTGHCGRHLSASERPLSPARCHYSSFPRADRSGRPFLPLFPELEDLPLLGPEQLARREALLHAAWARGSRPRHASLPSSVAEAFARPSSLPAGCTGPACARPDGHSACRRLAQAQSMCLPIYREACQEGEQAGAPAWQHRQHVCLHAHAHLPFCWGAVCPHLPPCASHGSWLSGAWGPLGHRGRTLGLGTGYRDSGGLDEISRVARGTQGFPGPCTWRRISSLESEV

CCC(=O)C(C[C@H](C)N(C)C)(c1ccccc1)c1ccccc1 [Dextromethadone, dextromethadone]
Social function (SDQ 41), LS mean difference vs placebo ([1]; 25 mg, Day 7): −1.07 | Social function (SDQ 41), effect size ([1]; 25 mg, Day 7): 0.65 | Sexual function (SDQ 40), LS mean difference vs placebo ([1]; 25 mg, Day 14): −1.32 | Sexual function (SDQ 40), effect size ([1]; 25 mg, Day 14): 0.93 | Social function (SDQ 41), LS mean difference vs placebo ([1]; 25 mg, Day 14): −1,246 | Social function (SDQ 41), effect size ([1]; 25 mg, Day 14): 0.99 | Sexual function (SDQ 40), LS mean difference vs placebo [1, 4]: −0.66 | Sexual function (SDQ 40), effect size [1, 4]: 0.48 | Social function (SDQ 41), LS mean difference vs placebo ([1]; 50 mg, Day 7): −1 | Social function (SDQ 41), effect size ([1]; 50 mg, Day 7): 0.57 | Sexual function (SDQ 40), LS mean difference vs placebo ([1]; 50 mg, Day 14): −0.4 | Sexual function (SDQ 40), effect size ([1]; 50 mg, Day 14): 0.29 | Social function (SDQ 41), effect size ([1]; 50 mg, Day 14): 0.98 | Sexual function (SDQ 40), LS mean difference vs placebo [1, 5]: −0.28 | Sexual function (SDQ 40), effect size [1, 5]: 0.19 | Social function (SDQ 41), effect size ([1]; CTG 25 mg+50 mg, Day 7): 0.61 | Sexual function (SDQ 40), LS mean difference vs placebo ([1]; CTG 25 mg+50 mg, Day 14): −0.86 | Sexual function (SDQ 40), effect size ([1]; CTG 25 mg+50 mg, Day 14): 0.59 | Social function (SDQ 41), LS mean difference vs placebo ([1]; CTG 25 mg+50 mg, Day 14): −1.19 | Social function (SDQ 41), effect size ([1]; CTG 25 mg+50 mg, Day 14): 0.99 | Sexual function (SDQ 40), LS mean difference vs placebo [1, 6]: −0.46 | Sexual function (SDQ 40), effect size [1, 6]: 0.32 | calcium response (mean±SEM) ([2]; 0.04 μM L-Glu + 10 μM DXT): 0.2 ± 0.4 | calcium response (mean±SEM) [2, 7]: 13 ± 1.0 | calcium response (mean±SEM) ([2]; 0.2 μM L-Glu + 10 μM DXT): 8.0 ± 0.5 | calcium response (mean±SEM) [2, 8]: 9.9 ± 0.8 | calcium response (mean±SEM) [2, 9]: 13 ± 1.0 | % effect on calcium entry, 100 QA + 10 DXT ([2]; 100 μM QA + 10 μM DXT): −1.0 ± 0.8% | calcium response (mean±SEM) ([2]; 1000 μM QA + 10 μM DXT): 12 ± 0.7 | % effect on calcium entry, 1000 QA + 10 DXT ([2]; 1000 μM QA + 10 μM DXT): 12 ± 0.7% | calcium response (mean±SEM) [2, 10]: 21 ± 0.9 | calcium response (mean±SEM) [2, 11]: 0.2 ± 0.4 | calcium response (mean±SEM) [2, 12]: 8.0 ± 0.5 | calcium response (mean±SEM) ([3]; 0.04 μM L-Glu + 10 μM DXT): 1.6 ± 0.4 | calcium response (mean±SEM) ([3]; 0.04 μM L-Glu + 100 μM QA + 10 μM DXT): −2.5 ± 0.7 | calcium response (mean±SEM) [3, 7]: −8.6 ± 1.5 | calcium response (mean±SEM) ([3]; 0.2 μM L-Glu + 10 μM DXT): 13 ± 0.7 | calcium response (mean±SEM) [3, 8]: 7.7 ± 0.6 | calcium response (mean±SEM) [3, 9]: −3.8 ± 0.9 | % effect on calcium entry, 100 QA + 10 DXT ([3]; 100 μM QA + 10 μM DXT): −3.3 ± 0.5% | calcium response (mean±SEM) ([3]; 1000 μM QA + 10 μM DXT): −8.0 ± 0.4 | % effect on calcium entry, 1000 QA + 10 DXT ([3]; 1000 μM QA + 10 μM DXT): −8.0 ± 0.4% | calcium response (mean±SEM) [3, 10]: −11 ± 0.9 | calcium response (mean±SEM) [3, 11]: 1.6 ± 0.4 | calcium response (mean±SEM) [3, 12]: 13 ± 0.7
